This passage reports MIC results from DBAASP.

Assay in all cases: ≥ marks a high value that may be exact or a test limit, other limits are often not marked, values filed in µg/mL are converted to µM
Assay [1] relates to Staphylococcus aureus IFO 12732.
Assay [2] has as its system Bacillus subtilis IFO 3513.
The subject of assay [3] is Escherichia coli IFO 12734.
In assay [4] the test system is Pseudomonas aeruginosa KCTC 1637.
Assay [5] concerns Bacillus subtilis KCTC 1918.
The test system of assay [6] is Escherichia coli KCTC 1682.
The subject of assay [7] is Bacillus megaterium KCTC 1096.
The next assay has as its system Proteus vulgaris.
Assay [8] has as its system Staphylococcus aureus KCTC 1621.
The subject of assay [9] is Pseudomonas aeruginosa PAO1.
The subject of assay [10] is Staphylococcus aureus USA 300.
Assay [11] has as its system Acinetobacter baumannii ATCC 17978.
Assay [12] deals with Escherichia coli NCTC 12923.
The test system of assay [13] is Staphylococcus aureus NCTC 10788.
For assay [14], the system named is Klebsiella pneumoniae NCTC 13368.
Assay [15] concerns Escherichia coli NCTC 10418.
The test system of assay [16] is Candida albicans NCPF 1467.
The subject of assay [17] is Staphylococcus aureus ATCC 9144.
In assay [18] the test system is Batrachochytrium dendrobatidis JEL-197.
Assay [19] relates to Staphylococcus aureus ATCC 25923.
Assay [20] concerns Candida albicans ATCC 90028.
For assay [21], the system named is Escherichia coli ATCC 25726.
For assay [22], the system named is Staphylococcus aureus FDA 209P.
The subject of assay [23] is Bacillus subtilis ATCC 6633.

Molecules are shown by their SMILES. Converted amounts (≈) assume the structure as drawn.

What is called MIC is the smallest concentration in the dilution series that meets the test's criterion for growth inhibition. High values mean weaker potency, low ones greater potency. In the case of `CC[C@H](C)[C@H](N)C(=O)N[C@@H](CC(C)C)C(=O)N1CCC[C@H]1C(=O)N[C@@H](Cc1c[nH]c2ccccc12)C(=O)N[C@@H](CCCCN)C(=O)N[C@@H](Cc1c[nH]c2ccccc12)C(=O)N1CCC[C@H]1C(=O)N[C@@H](CC(C)C)C(=O)N[C@@H](Cc1c[nH]c2ccccc12)C(=O)N1CCC[C@H]1C(=O)N[C@@H](Cc1c[nH]c2ccccc12)C(=O)N[C@@H](CCCN=C(N)N)C(=O)N[C@@H](CCCN=C(N)N)C(N)=O` [ILPWKWPLWPWRR], the MIC in assay [1] amounted to 0.851 µM (≈ 1.56 µg/mL); in assay [2], 1.71 µM (≈ 3.13 µg/mL); in [3], 6.81 µM (≈ 12.5 µg/mL).
Turning to `CC[C@H](C)[C@H](NC(=O)[C@H](CCCCN)NC(=O)[C@H](CCCCN)NC(=O)[C@H](Cc1ccccc1)NC(=O)[C@H](CC(C)C)NC(=O)[C@H](CCCCN)NC(=O)[C@@H](N)Cc1ccccc1)C(=O)N1CCC[C@H]1C(=O)N[C@@H](CCCCN)C(=O)N[C@@H](Cc1ccccc1)C(=O)N[C@@H](CC(C)C)C(=O)N[C@@H](Cc1cnc[nH]1)C(=O)N[C@@H](CC(C)C)C(=O)N[C@@H](C)C(=O)N[C@@H](CCCCN)C(=O)N[C@@H](CCCCN)C(=O)N[C@@H](Cc1ccccc1)C(N)=O` [FKLFKKIPKFLHLAKKF], the MIC in assay [4] amounted to 1.56 µM (≈ 3.33 µg/mL); in assay [5] it was 0.78 µM (≈ 1.66 µg/mL); in assay [6], 6.26 µM (≈ 13.4 µg/mL); in assay [7] it was 0.78 µM (≈ 1.66 µg/mL); against Proteus vulgaris it was 1.56 µM (≈ 3.33 µg/mL); in [8], 3.12 µM (≈ 6.66 µg/mL).
On to `CC[C@H](C)[C@H](N)C(=O)N[C@@H](CC(C)C)C(=O)N1CCC[C@H]1C(=O)N[C@@H](Cc1c[nH]c2ccccc12)C(=O)N[C@@H](CCCCN)C(=O)N[C@@H](Cc1c[nH]c2ccccc12)C(=O)N1CCC[C@H]1C(=O)N[C@@H](Cc1c[nH]c2ccccc12)C(=O)N[C@@H](CC(C)C)C(=O)N1CCC[C@H]1C(=O)N[C@@H](CCCCN)C(=O)N[C@@H](CCCN=C(N)N)C(=O)N[C@@H](CCCN=C(N)N)C(N)=O` [ILPWKWPWLPKRR], for which the MIC was determined as 3.52 µM (≈ 6.25 µg/mL) in [1], 1.76 µM (≈ 3.13 µg/mL) in assay [2] and 28.2 µM (≈ 50 µg/mL) in [3].
Turning to `CC[C@H](C)[C@H](NC(=O)[C@H](C)NC(=O)[C@H](CCCCN)NC(=O)[C@@H]1CCCN1C(=O)[C@@H](NC(=O)[C@H](CC(C)C)NC(=O)[C@H](CO)NC(=O)[C@H](Cc1ccccc1)NC(=O)[C@H](CC(C)C)NC(=O)[C@@H](N)Cc1ccccc1)[C@@H](C)CC)C(=O)NCC(=O)NCC(=O)N[C@@H](CC(C)C)C(=O)N[C@H](C(=O)N[C@@H](CO)C(=O)N[C@@H](C)C(=O)N[C@@H](Cc1ccccc1)C(=O)N[C@@H](CCCCN)C(N)=O)[C@@H](C)CC` [FLFSLIPKAIGGLISAFK], the minimum inhibitory concentration (MIC) in assay [9] is above 66.6 µM; in assay [10], 4.16 µM (≈ 8 µg/mL); in assay [11], 4.16 µM (≈ 8 µg/mL); in [12] it was 8.32 µM (≈ 16 µg/mL); in assay [13], 3 µM (≈ 5.76 µg/mL); in assay [14], at least 33.3 µM. Also, the values for the MIC in [15], in assay [16] and in assay [17] were 5 µM (≈ 9.61 µg/mL), 5 µM (≈ 9.61 µg/mL) and 2.08 µM (≈ 4 µg/mL), respectively.
Turning to `CC[C@H](C)[C@H](NC(=O)CN)C(=O)N[C@@H](CCSC)C(=O)N[C@@H](CC(N)=O)C(=O)N[C@H](C(=O)N[C@H](C(=O)N[C@@H](CCCCN)C(=O)N[C@@H](CC(=O)O)C(=O)N[C@H](C(=O)N[C@@H](C)C(=O)N[C@H](C(=O)NCC(=O)N[C@H](C(=O)N[C@@H](C)C(=O)N[C@H](C(=O)N[C@@H](Cc1cnc[nH]1)C(=O)N[C@@H](CC(C)C)C(=O)N[C@@H](CC(C)C)C(=O)N[C@@H](CC(N)=O)C(=O)N[C@@H](CCSC)C(=O)N[C@H](C(=O)N[C@@H](CCCCN)C(=O)N[C@H]1CSSC[C@@H](C(=O)O)NC(=O)CNC(=O)[C@H]([C@@H](C)O)NC(=O)[C@H]([C@@H](C)CC)NC(=O)[C@H](CCCCN)NC1=O)C(C)C)[C@@H](C)O)C(C)C)[C@@H](C)O)C(C)C)C(C)C)[C@@H](C)O` [GIMNTVKDVATGVATHLLNMVKCKITGC], the MIC was at least 100 µM in [18], above 50 µM in assay [19], at least 100 µM in assay [20] and at least 50 µM in assay [21].
Turning to `CC(C)C[C@H](NC(=O)[C@H](CCC(N)=O)NC(=O)[C@H](CCC(N)=O)NC(=O)[C@H](C)NC(=O)CNC(=O)[C@H](C)NC(=O)[C@H](CCCCN)NC(=O)CNC(=O)[C@@H](NC(=O)[C@H](CO)NC(=O)[C@H](CCCCN)NC(=O)[C@H](CC(C)C)NC(=O)[C@H](CC(C)C)NC(=O)[C@H](Cc1ccc(O)cc1)NC(=O)[C@H](CCCCN)NC(=O)[C@H](C)NC(=O)CNC(=O)[C@H](C)NC(=O)[C@H](CCCCN)NC(=O)[C@H](Cc1ccccc1)NC(=O)[C@H](CC(C)C)NC(=O)[C@H](CO)NC(=O)[C@H](CO)NC(=O)[C@H](Cc1ccccc1)NC(=O)CN)C(C)C)C(=O)N[C@@H](C)C(=O)N[C@H]1CSSC[C@@H](C(=O)N[C@@H](C)C(=O)O)NC(=O)[C@H](CC(N)=O)NC(=O)[C@H](CC(N)=O)NC(=O)[C@H](C)NC(=O)[C@H](C)NC(=O)[C@H](CCCCN)NC1=O` [GFSSLFKAGAKYLLKSVGKAGAQQLACKAANNCA], the MIC in assay [22] was determined as 4.36 µM (≈ 14.9 µg/mL); in [23], 18.7 µM (≈ 64 µg/mL).
As to `CC[C@H](C)[C@H](N)C(=O)N[C@@H](CC(C)C)C(=O)N1CCC[C@H]1C(=O)N[C@@H](Cc1c[nH]c2ccccc12)C(=O)N[C@@H](CCCCN)C(=O)N[C@@H](Cc1c[nH]c2ccccc12)C(=O)N1CCC[C@H]1C(=O)N[C@@H](Cc1c[nH]c2ccccc12)C(=O)N[C@@H](Cc1c[nH]c2ccccc12)C(=O)N1CCC[C@H]1C(=O)N[C@@H](CC(C)C)C(=O)N[C@@H](CCCN=C(N)N)C(=O)N[C@@H](CCCN=C(N)N)C(N)=O` [ILPWKWPWWPLRR], the MIC in assay [1] stood at 1.71 µM (≈ 3.13 µg/mL); in assay [2], 1.71 µM (≈ 3.13 µg/mL); in [3], 13.6 µM (≈ 25 µg/mL).
Take `CC[C@H](C)[C@H](NC(=O)[C@H](CCCCN)NC(=O)[C@H](CCCCN)NC(=O)[C@H](Cc1ccccc1)NC(=O)[C@H](CC(C)C)NC(=O)[C@H](CCCCN)NC(=O)[C@H](Cc1c[nH]c2ccccc12)NC(=O)[C@@H](N)CCCCN)C(=O)N[C@@H](CO)C(=O)N[C@@H](CCCCN)C(=O)N[C@@H](Cc1ccccc1)C(=O)N[C@@H](CC(C)C)C(=O)N[C@@H](Cc1cnc[nH]1)C(=O)N[C@@H](CC(C)C)C(=O)N[C@@H](C)C(=O)N[C@@H](CCCCN)C(=O)N[C@@H](CCCCN)C(=O)N[C@@H](Cc1ccccc1)C(N)=O` [KWKLFKKISKFLHLAKKF]: the minimal inhibitory concentration (MIC) in [4] was 6.25 µM (≈ 14.3 µg/mL); in [5] it was 1.56 µM (≈ 3.57 µg/mL); in assay [6] it was 25 µM (≈ 57.2 µg/mL); in assay [7], 3.12 µM (≈ 7.16 µg/mL); against Proteus vulgaris, 6.25 µM (≈ 14.3 µg/mL); in assay [8], 6.25 µM (≈ 14.3 µg/mL).
